Key:
Assay type in all cases: cell-based
human TLR8 = biological target: T1, human TLR8 (Homo sapiens, UniProt Q9NR97); experiment: TLR8 inhibition reporter assay (HEK-Blue cells, SEAP reporter, R848 stimulation); conditions: HEK-Blue cells overexpressing human TLR8, SEAP reporter, R848 15.9 μM
T1 construct: host or cells: HEK-Blue cells (HEK293-derived reporter line)
T1 sequence (Q9NR97 27-1041): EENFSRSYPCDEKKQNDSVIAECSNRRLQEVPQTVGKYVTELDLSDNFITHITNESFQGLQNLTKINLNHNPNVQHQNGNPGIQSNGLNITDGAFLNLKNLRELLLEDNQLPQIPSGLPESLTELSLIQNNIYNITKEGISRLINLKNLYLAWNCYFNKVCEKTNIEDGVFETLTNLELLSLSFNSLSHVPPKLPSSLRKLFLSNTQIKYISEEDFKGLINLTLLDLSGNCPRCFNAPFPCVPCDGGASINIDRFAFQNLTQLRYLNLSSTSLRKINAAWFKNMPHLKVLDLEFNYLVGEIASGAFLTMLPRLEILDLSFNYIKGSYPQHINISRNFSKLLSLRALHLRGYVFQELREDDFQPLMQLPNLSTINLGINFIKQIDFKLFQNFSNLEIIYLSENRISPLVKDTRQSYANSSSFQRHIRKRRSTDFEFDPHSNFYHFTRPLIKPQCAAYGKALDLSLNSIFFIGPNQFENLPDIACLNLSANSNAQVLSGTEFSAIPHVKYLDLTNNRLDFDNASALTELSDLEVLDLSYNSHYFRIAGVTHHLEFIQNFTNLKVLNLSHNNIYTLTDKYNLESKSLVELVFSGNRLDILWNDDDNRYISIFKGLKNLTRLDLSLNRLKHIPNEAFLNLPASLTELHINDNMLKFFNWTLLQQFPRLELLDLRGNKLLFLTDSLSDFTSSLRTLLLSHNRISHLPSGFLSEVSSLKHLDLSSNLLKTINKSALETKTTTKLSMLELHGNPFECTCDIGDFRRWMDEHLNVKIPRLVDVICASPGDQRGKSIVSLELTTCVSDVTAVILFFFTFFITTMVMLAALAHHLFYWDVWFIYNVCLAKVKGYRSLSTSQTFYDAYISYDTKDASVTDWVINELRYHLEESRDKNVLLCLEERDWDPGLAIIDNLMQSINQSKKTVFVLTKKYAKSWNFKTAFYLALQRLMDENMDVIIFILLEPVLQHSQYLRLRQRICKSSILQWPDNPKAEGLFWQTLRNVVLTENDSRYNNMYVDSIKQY
Outline: (§1)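 HEK-Blue cells overexpressing human TLR7, TLR8 or TLR9 (NF-κB/AP-1-driven SEAP) pre-treated 30 min at room temperature with compound (0.05 nM–50 μM), then stimulated with gardiquimod 7.5 μM (TLR7), R848 15.9 μM (TLR8) or ODN2006 5 nM (TLR9). SEAP read colorimetrically after 22 h at 37 °C; % inhibition calculated.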

human TLR7 = biological target: T2, human TLR7 (Homo sapiens, UniProt Q9NYK1); experiment: TLR7 inhibition reporter assay (HEK-Blue cells, SEAP reporter, gardiquimod stimulation); conditions: HEK-Blue cells overexpressing human TLR7, SEAP reporter, gardiquimod 7.5 μM
T2 construct: host or cells: HEK-Blue cells (HEK293-derived reporter line)
T2 sequence (Q9NYK1 27-1049): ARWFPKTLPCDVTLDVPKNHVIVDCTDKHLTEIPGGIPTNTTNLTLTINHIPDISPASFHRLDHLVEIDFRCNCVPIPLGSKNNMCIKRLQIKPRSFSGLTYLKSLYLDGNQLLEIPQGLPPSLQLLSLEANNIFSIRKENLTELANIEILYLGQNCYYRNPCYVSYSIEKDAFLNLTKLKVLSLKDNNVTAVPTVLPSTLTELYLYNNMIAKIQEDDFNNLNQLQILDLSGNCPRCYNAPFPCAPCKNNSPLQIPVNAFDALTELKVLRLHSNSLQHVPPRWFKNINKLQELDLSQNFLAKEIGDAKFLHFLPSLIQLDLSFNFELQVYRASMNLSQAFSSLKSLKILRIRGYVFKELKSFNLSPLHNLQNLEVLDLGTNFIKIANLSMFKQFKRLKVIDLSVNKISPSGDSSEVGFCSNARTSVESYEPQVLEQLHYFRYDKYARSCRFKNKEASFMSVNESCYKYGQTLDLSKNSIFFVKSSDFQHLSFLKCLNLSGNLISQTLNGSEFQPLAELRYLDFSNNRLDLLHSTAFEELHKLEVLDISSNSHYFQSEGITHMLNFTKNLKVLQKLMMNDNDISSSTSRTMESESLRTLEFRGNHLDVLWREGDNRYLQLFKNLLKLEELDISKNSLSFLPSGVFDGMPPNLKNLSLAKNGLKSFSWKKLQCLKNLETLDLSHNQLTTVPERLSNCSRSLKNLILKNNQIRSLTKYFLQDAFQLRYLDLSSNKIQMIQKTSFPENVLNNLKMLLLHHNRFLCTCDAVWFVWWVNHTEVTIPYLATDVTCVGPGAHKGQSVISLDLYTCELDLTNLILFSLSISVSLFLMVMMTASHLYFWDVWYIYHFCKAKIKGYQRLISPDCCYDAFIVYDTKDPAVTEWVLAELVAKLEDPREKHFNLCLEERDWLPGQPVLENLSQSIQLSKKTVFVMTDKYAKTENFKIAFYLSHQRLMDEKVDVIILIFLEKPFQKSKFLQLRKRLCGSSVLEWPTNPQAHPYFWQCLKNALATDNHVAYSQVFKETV
Outline: as §1

human TLR9 = biological target: T3, human TLR9 (Homo sapiens, UniProt Q9NR96); experiment: TLR9 inhibition reporter assay (HEK-Blue cells, SEAP reporter, ODN2006 stimulation); conditions: HEK-Blue cells overexpressing human TLR9, SEAP reporter, ODN2006 5 nM
T3 construct: host or cells: HEK-Blue cells (HEK293-derived reporter line)
T3 sequence (Q9NR96 26-1032): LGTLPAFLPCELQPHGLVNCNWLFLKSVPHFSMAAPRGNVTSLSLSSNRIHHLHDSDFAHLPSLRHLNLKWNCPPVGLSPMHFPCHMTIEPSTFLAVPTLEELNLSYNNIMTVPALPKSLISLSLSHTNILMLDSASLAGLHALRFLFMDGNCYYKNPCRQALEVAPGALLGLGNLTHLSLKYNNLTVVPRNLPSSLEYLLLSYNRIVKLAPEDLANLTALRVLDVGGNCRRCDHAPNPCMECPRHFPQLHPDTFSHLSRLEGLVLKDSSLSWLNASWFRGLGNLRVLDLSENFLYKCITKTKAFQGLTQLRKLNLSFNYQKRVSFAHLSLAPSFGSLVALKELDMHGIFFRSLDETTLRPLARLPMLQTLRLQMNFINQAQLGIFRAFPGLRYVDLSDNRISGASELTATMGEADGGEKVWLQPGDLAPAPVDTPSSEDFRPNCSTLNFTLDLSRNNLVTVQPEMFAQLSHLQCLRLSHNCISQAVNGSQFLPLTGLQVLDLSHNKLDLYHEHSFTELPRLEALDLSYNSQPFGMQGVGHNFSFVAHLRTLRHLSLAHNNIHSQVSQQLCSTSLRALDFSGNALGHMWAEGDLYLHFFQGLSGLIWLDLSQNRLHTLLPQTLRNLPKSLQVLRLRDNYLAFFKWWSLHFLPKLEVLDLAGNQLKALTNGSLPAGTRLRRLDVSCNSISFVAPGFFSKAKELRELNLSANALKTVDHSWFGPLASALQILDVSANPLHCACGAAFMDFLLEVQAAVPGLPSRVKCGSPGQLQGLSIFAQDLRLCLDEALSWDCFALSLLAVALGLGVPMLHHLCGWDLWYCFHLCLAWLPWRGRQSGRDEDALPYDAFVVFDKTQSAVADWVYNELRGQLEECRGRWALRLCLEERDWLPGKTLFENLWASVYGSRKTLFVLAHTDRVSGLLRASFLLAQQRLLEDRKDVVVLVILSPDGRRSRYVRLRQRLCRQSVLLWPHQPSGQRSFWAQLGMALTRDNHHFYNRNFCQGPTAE
Outline: as §1

SMILES	IC50 (human TLR8) [nM]	IC50 (human TLR7) [nM]	IC50 (human TLR9) [nM]
Cc1cc2cc(-c3[nH]c4ccc(C5CCN(CC(C)(C)O)CC5)cc4c3C(C)C)cc(CC(C)C)n2n1 [Example 770, 1-(4-(2-(7-isobutyl-2-methylpyrazolo[1,5-a]pyridin-5-yl)-3-isopropyl-1H-indol-5-yl)piperidin-1-yl)-2-methylpropan-2-ol]	> 3130	> 3130	1000 to 50000
CC(C)c1c(-c2ccnc3cnn(C)c23)[nH]c2ccc(C3CCNCC3)cc12 [Example 42, 7-(3-isopropyl-5-(piperidin-4-yl)-1H-indol-2-yl)-1-methyl-1H-pyrazolo[4,3-b]pyridine]	100 to 1000	1000 to 50000	1000 to 50000
CNC(=O)CN1CCC(c2ccc3[nH]c(-c4cc(C)c5c(cnn5C)c4)c(C(C)C)c3c2)CC1 [Example 364, 2-(4-(2-(1,7-dimethyl-1H-indazol-5-yl)-3-isopropyl-1H-indol-5-yl)piperidin-1-yl)-N-methylacetamide]	> 3130	100 to 1000	1000 to 50000
Cc1nc2cc(-c3[nH]c4ccc(C5CCN(C6COC6)CC5)cc4c3C(C)C)ccn2n1 [Example 728, 7-(3-isopropyl-5-(1-(oxetan-3-yl)piperidin-4-yl)-1H-indol-2-yl)-2-methyl-[1,2,4]triazolo[1,5-a]pyridine]	1000 to 50000	< 100	1000 to 50000
CCc1c(-c2cc3cnn(C)c3cn2)[nH]c2ccc(C3CCNCC3)cc12 [Example 97, 5-(3-ethyl-5-(piperidin-4-yl)-1H-indol-2-yl)-1-methyl-1H-pyrazolo[3,4-c]pyridine]	100 to 1000	1000 to 50000	1000 to 50000
CC(C)c1c(-c2ccnc3c2ccn3S(C)(=O)=O)[nH]c2ccc(C3CCN(C(=O)CN(C)C)CC3)cc12 [Example 450, 2-(dimethylamino)-1-(4-(3-isopropyl-2-(1-(methylsulfonyl)-1H-pyrrolo[2,3-b]pyridin-4-yl)-1H-indol-5-yl)piperidin-1-yl)ethanone]	< 100	1000 to 50000	100 to 1000
CCc1c(-c2ccnc3[nH]ncc23)[nH]c2ccc(C3CCN(Cc4cncs4)CC3)cc12 [Example 928, 5-((4-(3-ethyl-2-(1H-pyrazolo[3,4-b]pyridin-4-yl)-1H-indol-5-yl)piperidin-1-yl)methyl)thiazole]	< 100	100 to 1000	1000 to 50000
Cc1c(-c2[nH]c3ccc(C4CCN(CC(C)(C)O)CC4)cc3c2C(C)C)nn2ncnc2c1C [Example 747, 1-(4-(2-(7,8-dimethyl-[1,2,4]triazolo[1,5-b]pyridazin-6-yl)-3-isopropyl-1H-indol-5-yl)piperidin-1-yl)-2-methylpropan-2-ol]	< 100	< 100	1000 to 50000
CC(C)c1c(-c2ccc3ncc(C#N)n3c2)[nH]c2ccc(C3CCNCC3)cc12 [Example 119, 6-(3-isopropyl-5-(piperidin-4-yl)-1H-indol-2-yl)imidazo[1,2-a]pyridine-3-carbonitrile]	100 to 1000	100 to 1000	1000 to 50000

The remaining lines, values ahead:

IC50 (human TLR8) [nM]	IC50 (human TLR7) [nM]	IC50 (human TLR9) [nM]	SMILES
< 100	< 100	1000 to 50000	CC(C)c1c(-c2ccnc3[nH]ncc23)[nH]c2ccc(C3CCN(C(=O)C[C@H](C)N)CC3)cc12 [Example 637, (S)-3-amino-1-(4-(3-isopropyl-2-(1H-pyrazolo[3,4-b]pyridin-4-yl)-1H-indol-5-yl)piperidin-1-yl)butan-1-one]
< 100	< 100	100 to 1000	CC(C)c1c(-c2ccnc3[nH]ncc23)[nH]c2ccc(C3CCN(CC(C)(C)CN(C)C)CC3)cc12 [Example 847, 3-(4-(3-isopropyl-2-(1H-pyrazolo[3,4-b]pyridin-4-yl)-1H-indol-5-yl)piperidin-1-yl)-N,N,2,2-tetramethylpropan-1-amine]
< 100	100 to 1000	100 to 1000	CCc1c(-c2cnc3[nH]ncc3c2)[nH]c2ccc(C3CCN(C4CCN(C(C)C)CC4)CC3)cc12 [Example 819, 5-(3-ethyl-5-(1′-isopropyl-[1,4′-bipiperidin]-4-yl)-1H-indol-2-yl)-1H-pyrazolo[3,4-b]pyridine]
< 100	< 100	100 to 1000	Cc1c(-c2ccnc3cc[nH]c23)[nH]c2ccc(C3CCNCC3)cc12 [Example 23, 7-(3-methyl-5-(piperidin-4-yl)-1H-indol-2-yl)-1H-pyrrolo[3,2-b]pyridine]
< 100	< 100	100 to 1000	CC(C)c1c(-c2cc(Cl)cc3nccn23)[nH]c2ccc(C3CCNCC3)cc12 [Example 127, 7-chloro-5-(3-isopropyl-5-(piperidin-4-yl)-1H-indol-2-yl)imidazo[1,2-a]pyridine]
< 100	< 100	1000 to 50000	CC(C)c1c(-c2ccnc3[nH]ncc23)[nH]c2ccc(C3CCN(C(=O)CCn4ccnc4)CC3)cc12 [Example 642, 3-(1H-imidazol-1-yl)-1-(4-(3-isopropyl-2-(1H-pyrazolo[3,4-b]pyridin-4-yl)-1H-indol-5-yl)piperidin-1-yl)propan-1-one]

Source: patent US11739098B2 (BRISTOL-MYERS SQUIBB COMPANY, priority 2017, dated 2023)
